# System: CX-1 Human Colon Carcinoma
# Assay: Clonogenic dye screening assay, CX-1 cells (IC50)
# Assay type: cell-based
# Design: CX: unit not given here
# Settings: for CX: CX-1 cells; for CV/C: selectivity ratio, value of 1 where dye inactive; for CV/CX (selectivity, kill ratio): ratio of IC50 in normal CV-1 line to IC50 in carcinoma CX-1 line; for CX (IC50 in the CX-1 cell line): 3 hrs treatment, colonies after 7-10 days, unit from method b117-118
# From the text: CX-1 is a cancerous human colon adenocarcinoma cell line. CV-1 is a non-cancerous control, which is a kidney epithelial cell line from an African green monkey. IC50 is the dye concentration at which 50% of the cells are killed. Selectivity or kill ratio is defined as the ratio of […] at IC50 for both CX-1 and CV-1. A ratio with a high number indicates a high selectivity.
# The dyes were screened in two cell lines. CX-1 is a human colon adenocarcinoma cell line. CV-1 is a kidney epithelial cell line from an African green monkey. CV-1 was used as a reference because no normal human epithelial cell line is available for clonogenic assay.
# In the initial screen, dyes were examined at six different concentrations to generate a dose response curve. An IC50 value, the concentration at which 50% of the cells are killed, was then calculated. Initially, a dye concentration of 1.0 μg/mL was the highest examined for the CX-1 cell line and 0.005 μg/mL was the lower limit. The corresponding limits on the CV-1 cell line were […].
# The screening procedure used a response curve that was determined from eight dye concentrations. The upper and lower limits of CX-1 were 0.32 and 0.0015 μg/mL, respectively, and the corresponding revised limits on CV-1 were 3.2 and 0.025 μg/mL. The screening results were reported by assigning an IC50 value to each dye for the CV-1 and CX-1 cell lines. These values will be referred to herein simply as CV and CX. The most desirable result would be to have a dye that was highly toxic to carcinoma cells but nontoxic to ‘normal’ cells. One measure of this type of selectivity is the ratio of the IC50's in the normal cell line to that in the carcinoma line, CV/CX.
# Compounds are screened via an in vitro assay. CV-1 and CX-1 cells are seeded into separate assay plates. The plates are treated with varying concentrations of test compounds, rinsed, and colonies allowed to grow. IC50's are determined and drugs evaluated based on their selectivity and toxicity. Assay Steps: • I. Seeding Cells • II. Weighing • III. Preparation of Solution • IV. Treatment • V. Rinsing and Feeding • VI. Fixing • VII. IC50 Determination I. Seeding Cells
# The cells should be seeded 16-30 hours before treatment. The media for CV-1 cells is DME+5% calf serum +5% Nuserum. The media for CX-1 cells is RPMI/DME (50/50)+5% calf serum +5% Nuserum.
# (c) number of cells based on 2000 CX-1 cells/well and 1000 CV-1 cells/well. NOTE: Always make enough cell suspension for 1 extra plate to allow for volume loss during transfers.
# • (a) For CV-1: 256 ug/ml-256 ul of 1 mg/ml stock +744 ul DMSO • (b) For CX-1: 25.6 ug/ml-100 ul of 256 ug/ml+900 ul DMSO IV. Treatment • 1. Each plate is treated with 4 test compounds, one positive control and one negative control. • 2. Serial dilutions of the compounds are made in the following way:
# 2 multi-well pipetters are used. One is set for 10 ul and one for 200 ul. Each is equipped with 6 tips spaced such that they fit into the 6 rows of a plate. 390 ul of media is added to the first column of each plate. 10 ul each of 4 compound solutions, a positive and a negative control are taken up and put into the first column of wells. The 200 ul pipetter is then placed in the same wells, pipetted up and down 3 times and two 200 ul aliquots are moved to the next column of wells. This column is pipetted up and down 3 times and 400 ul moved to column 3, etc. The final 400 ul excess from column 8 is discarded.
# • 3. Label the plates along the front, each row −1 compound. • 4. Incubate the plates at 37° C. for 3 hrs. V. Rinsing • 1. Prepare several bottles of CX-1 and CV-1 media. • 2. Check for precipitate in first column of each plate and note. • 3. Starting with the plates treated first, rinse several plates at a time by aspirating the treatments and refilling each well with 0.5-1.0 ml of the rinse media. Aspirate and refill 2 more times for a total of 3 rinses. • 4.
# [1] = Table XXI, oxathiacarbocyanine nitrogen substituents
# [2] = Table XVII, benzotellurazole derivatives
# [3] = Table XVII, selectivity ratio of IC50 values
# [4] = Table XV, selectivity ratio of IC50 values
# [5] = Table XVI, selectivity ratio of IC50 values
CX (IC50 in the CX-1 cell line),Compound,"CV/CX (selectivity, kill ratio)",other results
–,"CCN1/C(=C/C=C/c2sc3ccccc3[n+]2CCC=O)Oc2ccccc21 [R1=CCC═0, R2=Et]",–,CX [1]: 0.1; CV/C (Table XXI): 50.0
–,CCN1/C(=C/C=C/c2sc3ccccc3[n+]2CC)Oc2ccc(C)cc21 [drawing 44|E|H|5-Me],4.0,–
–,CCN1/C(=C/C=C/c2sc3ccc(OC)cc3[n+]2CC)Sc2ccc(OC)cc21 [drawing 41|Et|5-MeO|5-MeO],40.0,–
0.05 µg/mL,CC[n+]1c(/C=C/C=C2\SC(C)=C(C)N2C)oc2ccccc21.[I-] [Dye D-119],60,–
>0.32 µg/mL,"CN1/C(=C/C=C/c2sc3c(F)c(F)c(F)c(F)c3[n+]2C)Sc2c(F)c(F)c(F)c(F)c21 [drawing 41|Me|4,5,6,7-F|4,5,6,7-F]",10.0,–
–,"CCN1/C(=C/C(C)=C/c2[te]c3ccc(C)cc3[n+]2CC)Sc2ccccc21 [R=E, X=S, Z1=5-Me, R2=Me, Z2=H]",–,CX [2]: 0.03; CV/CX [3]: 26.6
>.32 µg/mL,CCN1/C(=C\C=C\c2oc3ccc(C(F)(F)F)cc3[n+]2CC)Oc2ccc(C(F)(F)F)cc21 [drawing 45|5-CF3|5-CF3],10.0,–
>1.0 µg/mL,CCC=NNC(N)=S [drawing 37|CCC═NNC(═S)N|Et],10.0,–
0.3 µg/mL,"CCN1/C(=C/C=C/c2sc3ccccc3[n+]2CC(=O)c2ccc(O)cc2O)Oc2ccccc21 [drawing 37|CC(═O)Ph-2,4-OH|Et]",>33.3,–
–,"CCN1C(=CC=Cc2sc3cc(O)c(O)cc3[n+]2CC)Oc2ccccc21 [drawing 46|S|O|5,6-OH|H]",8.0,–
0.03 µg/mL,CCC(=Cc1sc2ccccc2[n+]1CC)C=C1Oc2ccccc2N1CC [drawing 39|E|H|Et],33.3,–
0.10 µg/mL,CCN1C(=CC=Cc2oc3ccccc3[n+]2CC)Oc2ccccc21 [drawing 45|H|H],30.0,–
–,CCN1/C(=C\C=C\c2sc3ccccc3[n+]2CC)Oc2ccc(Cl)cc21 [drawing 44|Et|H|5-Cl],27.3,–
–,CCN1C(=CC=Cc2oc3ccccc3[n+]2CC)Oc2ccccc21 [Dye B-400],–,"CX (Table XV, symmetrical dyes): 0.10; CV/CX [4]: 30.0"
–,"CC[n+]1c(/C=C/C=C2\Oc3ccccc3N2CC(=O)c2ccccc2)sc2ccccc21 [R1=Et, R2=C(C═O)Ph]",–,CX [1]: 0.8; CV/C (Table XXI): 3.7
0.16 µg/mL,CCN1/C(=C/C=C/c2sc3cc(C#N)ccc3[n+]2C)Sc2ccccc21 [drawing 41|M/E|6-CN|H],20.0,–
0.08 µg/mL,COc1cccc2c3c(ccc12)S/C(=C\C=C\c1sc2ccc4c(OC)cccc4c2[n+]1C)N3C [drawing 43|M|6-MeO|6-MeO],10.0,–
0.08 µg/mL,CCN1C=C(c2ccccc2)O/C1=C\C=C\c1oc(-c2ccccc2)c[n+]1CC.[I-] [Dye D-118],93.75,–
–,"CCN1/C(=C/C=C/c2sc3ccccc3[n+]2CC)C(C)(C)c2ccccc21 [3H-indole (3,3-Me)]",–,"CX (Table XVI, unsymmetrical dyes): 0.16; CV/CX [5]: 0.3"

CX (IC50 in the CX-1 cell line),Compound,"CV/CX (selectivity, kill ratio)",other results
–,CN1/C(=C/C=C/c2sc3ccc4ccccc4c3[n+]2C)Sc2ccc3ccccc3c21 [drawing 43|M|H|H],10.0,–
–,"CSCCN1C(=CC=Cc2sc3ccccc3[n+]2CCSC)Sc2ccccc21 [R1=CCSMe, R2=CCSMe]",–,"CX (Table XX, thiacarbocyanine nitrogen substituents): 0.015; CV/CX (Table XX, ratio given a value of 1 where dye inactive): 12.0"
0.008 µg/mL,CCN1/C(=C/C=C/c2sc3cc(Cl)ccc3[n+]2CC)Sc2cc(Cl)ccc21 [Dye D-105],112.5,"Selectivity (Table 1, cell line not given, values equal CV/CX of Table II): 112.5"
–,CC[n+]1c(/C=C/C=C2C=CC=CN2C)sc2ccccc21 [Dye 2-pyridine],–,"CX (Table XVI, unsymmetrical dyes): 0.08; CV/CX [5]: 50.0"
–,CCN1C=C(c2ccccc2)SC1=CC=Cc1sc2ccccc2[n+]1CC [Dye 5-Ph-thiazole],–,"CX (Table XVI, unsymmetrical dyes): 0.03; CV/CX [5]: 16.7"
0.1 µg/mL,CCn1c(=O)/c(=C/C=C2\C=Cc3cccc4c3N2CCC4)s/c1=C\c1oc2ccccc2[n+]1CC [Dye D-143],100,–
–,"CCN1C(=CC=Cc2[te]c3ccc(C)cc3[n+]2CC)[Te]c2ccc(C)cc21 [R=E, X=Te, Z1=5-Me, R2=H, Z2=5-Me]",–,CX [2]: 0.052; CV/CX [3]: 7.7
–,CCC(=Cc1sc2ccccc2[n+]1CC)C=C1Sc2ccccc2N1CC [drawing 38|E|H|Et|H],10.0,–
0.16 µg/mL,CCN1/C(=C/C=C/c2oc3c(-c4ccccc4)cccc3[n+]2CC)Oc2c(-c3ccccc3)cccc21 [drawing 45|7-Ph|7-Ph],5.0,–
–,CCN1/C(=C/C(=C/c2sc3ccccc3[n+]2CC)C(=S)SC)Sc2ccccc21 [drawing 38|E|H|C(═S)SC|H],>10.0,–
0.065 µg/mL,CN1C(=CC(=Cc2sc3ccccc3[n+]2C)Sc2ccccc2)Sc2ccccc21 [drawing 38|M|H|SPh|H],7.69,–
0.06 µg/mL,CCC(/C=C1\Oc2ccc3ccccc3c2N1CC)=C\c1sc2ccc3ccccc3c2[n+]1CC [drawing 40|E|Et],5.0,–
–,CCN1C(=CC(C)=Cc2sc3ccccc3[n+]2CC)Sc2ccccc21 [drawing 38|E|H|Me|H],8.0,–
0.04 µg/mL,CCN1C(=CC=Cc2sc3ccc(Br)cc3[n+]2CC)Sc2ccc(Br)cc21 [drawing 41|Et|5-Br|5-Br],35.0,–
–,"CCN1/C(=C/C=C/c2sc3c([n+]2C)CCCC3)Sc2ccccc21.[I-] [benzothiazole(4,5,6,7-H)]",–,"CX (Table XVI, unsymmetrical dyes): <0.005; CV/CX [5]: >60.0"
0.02 µg/mL,"COc1cccc2c1CCC1=C2N(C)/C(=C/C=C/c2sc3c([n+]2C)-c2cccc(OC)c2CC3)S1 [drawing 43|M|4,5-H, 6-MeO|4,5-H, 6-MeO]",0.75,–
–,CCN1C(=CC=Cc2ccc3ccccc3[n+]2CC)C=Cc2ccccc21 [Dye B-301],–,"CX (Table XV, symmetrical dyes): 0.040; CV/CX [4]: 12.5"
–,"CCN1C(=CC=Cc2sc3ccccc3[n+]2CC)N(CC)c2cc(Cl)c(Cl)cc21 [benzimidazole(5,6-Cl)]",–,"CX (Table XVI, unsymmetrical dyes): 0.260; CV/CX [5]: 0.8"
0.03 µg/mL,C=C(Br)C[n+]1c(/C=C/C=C2\Oc3ccccc3N2CC)sc2ccccc21 [drawing 37|CC(Br)═C|Et],33.3,–

Compound,CX (IC50 in the CX-1 cell line),"CV/CX (selectivity, kill ratio)",other results
CCN1C(=CC=Cc2[te]c3ccccc3[n+]2CC)[Te]c2ccccc21 [drawing 46|Te|Te|H|H],0.30 µg/mL,16.7,–
"CCN1/C(=C\C=C\c2[se]c3ccccc3[n+]2CC)Sc2cc(O)c(O)cc21 [drawing 42|H|5,6-OH]",0.300 µg/mL,–,–

# From patent US20060099712A1, “Correlation of anti-cancer activity of dyes with redox potentials” (Eastman Kodak Company, priority 2004, published 2006)
